US7495027B2, “3-aryl-4-hydroxyfuranone compounds and the human and animal health use thereof” (Wyeth, priority 2003, dated 2009)
Values after ≈ are worked out from the molar mass of the structure shown. Read-outs that look alike come from different tables or passages of the source.

Assays:
[1] = target: E. coli Uridine-diphosphate-N-acetylmuramoyl-L-alanine: D-glutamate liease, MurD (Escherichia coli, UniProt P14900); assay: biochemical; conditions: (E) E. coli enzyme
Procedure, shortened: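 Final buffer 83 mM Tris/HCl pH 8.0, 50 mM MgCl2, 2 mM ATP. Compounds from 10 mg/mL DMSO stocks diluted to 100 μg/mL in 50 mM Tris/HCl pH 8.5 (working solution, not final assay level).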

[2] = target: E. coli UDP-N-acetylglucosamine enolpyruvoyl transferase, MurA (Escherichia coli, UniProt P0A749); assay: biochemical; conditions: (E) E. coli enzyme
E. coli UDP-N-acetylglucosamine enolpyruvoyl transferase, MurA, sequence (P0A749 whole entry): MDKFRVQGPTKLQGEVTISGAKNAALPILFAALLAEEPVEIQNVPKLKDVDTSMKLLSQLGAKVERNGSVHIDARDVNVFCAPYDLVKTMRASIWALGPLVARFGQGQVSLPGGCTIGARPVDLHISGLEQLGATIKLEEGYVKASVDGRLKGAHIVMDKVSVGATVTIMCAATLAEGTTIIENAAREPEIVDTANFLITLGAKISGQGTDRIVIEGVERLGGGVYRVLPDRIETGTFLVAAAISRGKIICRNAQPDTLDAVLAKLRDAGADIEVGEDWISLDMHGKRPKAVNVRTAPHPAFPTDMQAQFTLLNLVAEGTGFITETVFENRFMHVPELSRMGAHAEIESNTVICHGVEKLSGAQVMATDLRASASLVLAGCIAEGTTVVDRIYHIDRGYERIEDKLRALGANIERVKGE
Procedure, shortened: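 Compound in DMSO/water pre-incubated 10 min at 37° C with enzyme in 50 mM Tris/HCl pH 8.0, 5 mM DTT, 20% glycerol. After Tris/BME and assay buffer were added, OD340 was read at start. Reaction ran 1 hr at 37° C, then stop solution was added with 30 min colour development.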

[3] = target: E. coli Enopyruvyl-UPD-N-acetylglucosamine reductase, Mur B (Escherichia coli, UniProt P08373); assay: biochemical; conditions: (E) E. coli enzyme; for IC50: read-out: MurB IC50 (converted)
E. coli Enopyruvyl-UPD-N-acetylglucosamine reductase, Mur B, sequence (P08373 whole entry): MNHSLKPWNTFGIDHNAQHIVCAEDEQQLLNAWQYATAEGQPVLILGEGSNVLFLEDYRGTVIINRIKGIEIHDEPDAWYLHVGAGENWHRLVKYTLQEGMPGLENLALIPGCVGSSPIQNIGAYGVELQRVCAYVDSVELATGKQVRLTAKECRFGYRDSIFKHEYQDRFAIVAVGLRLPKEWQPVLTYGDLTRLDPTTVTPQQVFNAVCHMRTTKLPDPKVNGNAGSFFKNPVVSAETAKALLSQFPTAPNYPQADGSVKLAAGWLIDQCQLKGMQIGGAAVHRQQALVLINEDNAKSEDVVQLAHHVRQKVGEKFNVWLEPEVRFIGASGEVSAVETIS

[4] = system: enterococci; assay: Minimum inhibitory concentration, microdilution broth method, enterococci; type: cell-based; conditions: Enterococcus faecalis, Mueller-Hinton broth, 18-22 hours at 35° C.
Procedure, shortened: (§1)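 Broth microdilution per NCCLS M7-A5 (2000). Staphylococci and enterococci grown in Mueller-Hinton broth; streptococci in Mueller-Hinton broth with 5% horse blood (LHB). Panel includes recent clinical isolates resistant to methicillin, penicillin and/or vancomycin.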

[5] = system: Streptococci; assay: Minimum inhibitory concentration, microdilution broth method, streptococci; type: cell-based; conditions: S. pneumo GC 1894; Mueller-Hinton broth with 5% horse blood, 18-22 hours at 35° C.
Procedure, shortened: as §1

[6] = target: E. coli Uridine-diphosphate-N-acetvimuramoyl: L-alanine lipase, MurC (Escherichia coli, UniProt P17952); assay: Inhibitory activity against MurC (E. coli); type: biochemical; conditions: (E) E. coli enzyme; for IC50: read-out: MurC IC50 (converted)
E. coli Uridine-diphosphate-N-acetvimuramoyl: L-alanine lipase, MurC, sequence (P17952 whole entry): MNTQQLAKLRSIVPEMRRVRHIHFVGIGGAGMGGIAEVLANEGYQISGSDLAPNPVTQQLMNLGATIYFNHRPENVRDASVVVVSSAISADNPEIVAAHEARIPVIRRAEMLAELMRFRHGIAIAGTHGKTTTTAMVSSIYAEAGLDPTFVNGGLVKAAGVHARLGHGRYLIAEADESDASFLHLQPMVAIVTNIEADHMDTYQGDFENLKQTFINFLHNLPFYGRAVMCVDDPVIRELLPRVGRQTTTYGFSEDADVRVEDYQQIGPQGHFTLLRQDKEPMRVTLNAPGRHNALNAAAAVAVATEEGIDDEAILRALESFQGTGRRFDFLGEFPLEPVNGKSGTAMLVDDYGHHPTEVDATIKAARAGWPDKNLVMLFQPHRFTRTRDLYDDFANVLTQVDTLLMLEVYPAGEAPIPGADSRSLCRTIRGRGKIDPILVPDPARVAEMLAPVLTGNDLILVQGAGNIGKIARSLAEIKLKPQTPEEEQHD

[7] = system: staphylococci; assay: Minimum inhibitory concentration, microdilution broth method, staphylococci; type: cell-based; conditions: Staphylococcus aureus, Mueller-Hinton broth, 18-22 hours at 35° C.
Procedure, shortened: as §1

[8] = target: T1, S. aureus Uridine-diphosphate-N-acetylmuramoyl-L-alanine: D-glutamate liease, MurD (Staphylococcus aureus, UniProt Q2FZ92); assay: biochemical; conditions: (S) S. aureus enzyme
T1 sequence (Q2FZ92 1-449): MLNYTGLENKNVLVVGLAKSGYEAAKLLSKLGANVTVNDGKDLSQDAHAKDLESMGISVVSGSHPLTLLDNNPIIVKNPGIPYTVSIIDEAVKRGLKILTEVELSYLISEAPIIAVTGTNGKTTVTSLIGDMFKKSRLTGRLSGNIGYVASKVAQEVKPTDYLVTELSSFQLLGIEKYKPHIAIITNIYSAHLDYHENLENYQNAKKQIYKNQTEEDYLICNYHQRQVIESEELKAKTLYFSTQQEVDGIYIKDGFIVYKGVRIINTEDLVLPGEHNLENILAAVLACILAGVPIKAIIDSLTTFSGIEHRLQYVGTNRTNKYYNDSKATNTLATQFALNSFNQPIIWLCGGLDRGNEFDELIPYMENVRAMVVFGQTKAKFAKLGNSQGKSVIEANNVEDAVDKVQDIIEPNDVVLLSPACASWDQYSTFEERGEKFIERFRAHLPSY
Method: S. aureus and E. coli Uridine-diphosphate-N-acetylmuramoyl-L-alanine: D-glutamate liease, MurD
(§2) Preparation of Enzyme Solution:
(§3) Preparation of Test Compound Solutions:
(§4) All test solutions are prepared in DMSO as 10 mg/mL, then diluted with 50 mM Tris/HCl (pH 8.5) to 100 μg/mL.
(§5) Preparation of Stop Solution:
In this evaluation, the inhibitory activity of a test compound against MurD, the enzyme which catalyzes the fourth step of bacterial cell wall biosynthesis is determined.

[9] = target: T2, S. aureus UDP-N-acetylglucosamine enolpyruvoyl transferase, MurA (Staphylococcus aureus, UniProt P84058); assay: Inhibitory activity against MurA (S. aureus); type: biochemical; conditions: (S) S. aureus enzyme
T2 sequence (P84058 1-421): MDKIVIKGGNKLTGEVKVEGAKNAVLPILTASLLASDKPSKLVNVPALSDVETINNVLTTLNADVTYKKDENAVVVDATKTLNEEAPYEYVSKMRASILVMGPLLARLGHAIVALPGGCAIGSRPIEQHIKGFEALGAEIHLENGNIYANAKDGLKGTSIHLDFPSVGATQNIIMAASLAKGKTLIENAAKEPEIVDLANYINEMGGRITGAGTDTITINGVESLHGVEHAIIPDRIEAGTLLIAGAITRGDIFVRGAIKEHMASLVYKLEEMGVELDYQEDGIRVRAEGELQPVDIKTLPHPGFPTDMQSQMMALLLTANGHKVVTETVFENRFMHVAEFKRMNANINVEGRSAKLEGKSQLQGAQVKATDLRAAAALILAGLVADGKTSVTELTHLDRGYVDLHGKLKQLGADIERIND
Method: Evaluation of the Inhibitory Activity of Test Compounds Against Enzymes which Catalyze Bacterial Cell Wall Biosynthesis
S. aureus and E. coli UDP-N-acetylglucosamine enolpyruvoyl transferase, MurA
as §2
The enzyme solution is prepared by admixing the following: 50 mM Tris/HCl pH 8.0, […] 1 M Tris, 5 mM DTT, […] 1 M DTT, 20% Glycerol 4 ml 50% Glycerol, add water to 10 ml.
as §5
The stop solution is prepared by mixing the following: 4.2% ammonium molybdate in 4N HCl, 8.4 g/200 ml 4N HCl, 0.045% malachite green, 90 mg/200 ml water, then stir 1 part ammonium molybdate with 2 parts malachite green for 30 min.
A procedure similar to that described by C. T. Walsh in Biochemistry 33, 10646-10651, is used to evaluate the inhibitory activity of test compounds against MurA, the enzyme which catalyzes the first step of bacterial cell wall biosynthesis. Experiments are performed by adding a solution of test compound (in a mixture of dimethylsulfoxide and water) and an enzyme solution to a well. After a pre-incubation period of 10 mintues at 37° C., Tris/BME buffer and assay buffer are added. A start point optical density (OD0) reading is taken at 340 nm immediately following the addition of assay buffer. After incubation for 1 hr at 37° C., the stop solution is added and the color is allowed to develop for 30 minutes. An end point OD1 reading at […] is then taken. […]

[10] = target: T3, S. aureus Uridine-diphosphate-N-acetvimuramoyl: L-alanine lipase, MurC (Staphylococcus aureus, UniProt Q2FXJ0); assay: biochemical; conditions: (S) S. aureus enzyme; read-out: MurC IC50 (converted)
T3 sequence (Q2FXJ0 1-437): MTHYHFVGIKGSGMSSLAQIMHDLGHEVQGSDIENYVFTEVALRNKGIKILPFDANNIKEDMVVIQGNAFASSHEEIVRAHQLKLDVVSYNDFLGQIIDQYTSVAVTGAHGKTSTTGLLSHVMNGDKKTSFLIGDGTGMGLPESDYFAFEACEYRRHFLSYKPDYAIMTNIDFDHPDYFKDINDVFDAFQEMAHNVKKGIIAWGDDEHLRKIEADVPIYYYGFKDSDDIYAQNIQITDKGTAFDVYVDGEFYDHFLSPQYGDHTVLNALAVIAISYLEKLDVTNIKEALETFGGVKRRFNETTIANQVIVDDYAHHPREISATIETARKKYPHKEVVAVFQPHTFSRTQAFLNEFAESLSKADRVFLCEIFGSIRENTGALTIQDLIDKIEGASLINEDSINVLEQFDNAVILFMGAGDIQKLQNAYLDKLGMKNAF
Method: S. aureus and E. coli Uridine-diphosphate-N-acetvimuramoyl: L-alanine lipase, MurC
as §2
A 1 mg/mL stock solution of MurC is prepared in a buffer consisting of 20 mM Tris/HCl (pH 8.5) with 2.5 μM BME. The stock solution is further diluted with the buffer to give a final enzyme concentration of 100 μg/mL for the E. coli stock solution and 70 μg/mL for the S. aureus stock solution.
as §3, §4, §5
The stop solution is prepared by stirring 1 part 4.2% ammonium molydbate in 4N HCl with 2 parts 0.045% malachite green for 30 min.
In this evaluation, the inhibitory activity of a test compound against MurC, the enzyme which catalyzes the third step of bacterial cell wall bioxynthesis is determined. Experiments are performed by adding 2.5 μl buffer, 2.5 μl 0.5M NH4SO2, 5 μl 2 μM L-Ala, 5 μl enzyme solution and 6.5 μl test compound solution to each well in a 96-well microplate. After a pre-incubation period of 10 mins. at 23° C., 3.75 μl of a 0.75 μM solution of UDP-MurNac is added to each well. Following an incubation period of 10 mins. at 37° C., 210 μl stop solution and 50 μl of a 34% w/v sodium citrate solution are added and color is allowed to develop for 10 mins. at 23° C. (Lanzetta et al., Analytical Biochemistry, 1979, 95) Optical density readings are taken at 660 nm using a Molecular Devices Spectra Max 250 with Soft Max software. Controls are performed using the same procedure and omitting the addition of UDP-MurNac. […]
Using these values the IC50 is determined by linear regression analysis.

[11] = target: T4, S. aureus Enopyruvyl-UPD-N-acetylglucosamine reductase, Mur B (Staphylococcus aureus, UniProt P61431); assay: biochemical; conditions: (S) S. aureus enzyme; read-out: MurB IC50 (converted)
T4 sequence (P61431 1-307): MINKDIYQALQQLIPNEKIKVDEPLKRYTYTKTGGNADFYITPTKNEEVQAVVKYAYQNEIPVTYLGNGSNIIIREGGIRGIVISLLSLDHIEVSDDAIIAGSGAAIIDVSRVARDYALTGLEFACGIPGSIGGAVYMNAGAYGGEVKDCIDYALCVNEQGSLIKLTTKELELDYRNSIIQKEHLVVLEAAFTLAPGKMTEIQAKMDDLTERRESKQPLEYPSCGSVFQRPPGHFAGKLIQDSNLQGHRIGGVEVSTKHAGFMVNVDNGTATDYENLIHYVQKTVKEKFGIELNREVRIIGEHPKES

[12] = E. faecalis GC 2242, read-out: MIC E. faecalis GC 2242
[13] = E. faecalis GC 4555, read-out: MIC E. faecalis GC 4555
[14] = S. aureus GC 1131, read-out: MIC S. aureus GC 1131
[15] = S. aureus GC 4543, read-out: MIC S. aureus GC 4543

E. coli Uridine-diphosphate-N-acetylmuramoyl-L-alanine: D-glutamate liease, MurD, sequence (P14900 whole entry): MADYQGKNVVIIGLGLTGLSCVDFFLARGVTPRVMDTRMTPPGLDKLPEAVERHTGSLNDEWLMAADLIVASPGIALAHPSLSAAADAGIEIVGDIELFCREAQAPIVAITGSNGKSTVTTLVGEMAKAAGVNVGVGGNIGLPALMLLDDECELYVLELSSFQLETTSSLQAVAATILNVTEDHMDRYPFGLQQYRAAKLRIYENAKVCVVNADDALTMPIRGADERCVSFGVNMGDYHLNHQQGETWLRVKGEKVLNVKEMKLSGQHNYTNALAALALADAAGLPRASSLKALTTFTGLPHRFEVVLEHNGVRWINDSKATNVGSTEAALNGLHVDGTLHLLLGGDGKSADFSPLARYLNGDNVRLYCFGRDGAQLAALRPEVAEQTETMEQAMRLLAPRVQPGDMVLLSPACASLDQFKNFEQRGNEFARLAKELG

Row | IC50 [9] [µM] | SMILES | IC50 [1] [µM] | IC50 [2] [µM] | IC50 [3] [µM] | melting point [°C] | MIC [4, 12] [mg/L] | MIC [4, 13] [mg/L] | MIC [5] [mg/L] | IC50 [6] [µM] | MIC [7, 14] [mg/L] | MIC [7, 15] [mg/L] | IC50 [8] [µM] | IC50 [10] [µM] | MurC IC50 [6] | IC50 [11] [µM] | MurB IC50 [3] [mg/L]
1 | – | O=C1O/C(=C\c2cccc3ccccc23)C(O)=C1c1ccc2ccccc2c1 [Example 44] | > 68.6 | 49.4 | 19.2 | 205 to 207 | 8 (≈ 22 µM) | 16 (≈ 43.9 µM) | 1 (≈ 2.74 µM) | 16.5 | 4 (≈ 11 µM) | 8 (≈ 22 µM) | – | – | – | – | –
2 | – | O=C1O/C(=C\c2ccc3ccccc3c2)C(O)=C1c1ccc(-c2ccccc2)cc1 [Example 103] | > 64 | > 64 | 15.4 | 266 to 270 | 32 (≈ 82 µM) | 64 (≈ 164 µM) | 0.5 (≈ 1.28 µM) | 41 | > 128 | 64 (≈ 164 µM) | – | – | – | – | –
3 | – | COc1ccc(C2=C(O)/C(=C/c3ccc(-c4ccccc4)cc3)OC2=O)cc1 [Example 9] | > 67.5 | > 67.5 | 43.2 | 266 to 269 | 8 (≈ 21.6 µM) | 64 (≈ 173 µM) | < 0.125 | > 67.5 | 32 (≈ 86.4 µM) | > 128 | – | – | – | – | –
4 | 30.1 | CC(=O)c1ccccc1-c1ccc(/C=C2\OC(=O)C(c3cc(Cl)cc(Cl)c3)=C2O)cc1C [Example 40] | – | – | – | – | 2 (≈ 4.3 µM) | 2 (≈ 4.3 µM) | < 0.125 | – | 1 (≈ 2.15 µM) | 1 (≈ 2.15 µM) | 15 | 8.6 | – | – | –
5 | – | Cc1ccc(/C=C2\OC(=O)C(c3cccc(C(F)(F)F)c3)=C2O)s1 [Example 12] | > 71 | > 71 | > 71 | 249 to 251 | 64 (≈ 182 µM) | > 128 | 2 (≈ 5.68 µM) | 42.6 | 64 (≈ 182 µM) | 64 (≈ 182 µM) | – | – | – | – | –
6 | – | O=C1O/C(=C\c2cccc3ccccc23)C(O)=C1c1ccc(Cl)cc1 [Example 4, 3-(4-Chlorophenyl)-4-hydroxy-5-[(Z)-1-naphthylmethylidene]-furan-2-(5H)-one] | – | – | – | – | 8 (≈ 22.9 µM) | 32 (≈ 91.7 µM) | 1 (≈ 2.87 µM) | – | 16 (≈ 45.9 µM) | 16 (≈ 45.9 µM) | 68.8 | 45.9 | 7 µg/mL | – | –
7 | – | O=C1O/C(=C\c2cccc(-c3ccc(Cl)c(Cl)c3)c2)C(O)=C1c1ccc(Cl)c(Cl)c1 [Example 135] | – | 4.18 | 6.27 | – | 4 (≈ 8.37 µM) | 4 (≈ 8.37 µM) | 1 (≈ 2.09 µM) | 12.5 | 32 (≈ 66.9 µM) | 1 (≈ 2.09 µM) | 12.5 | – | – | 6.27 | –
8 | – | COc1ccc(C2=C(O)/C(=C/c3cccc4ccccc34)OC2=O)cc1 [Example 6] | > 72.6 | > 72.6 | > 72.6 | – | 32 (≈ 92.9 µM) | > 128 | 8 (≈ 23.2 µM) | 46.5 | 32 (≈ 92.9 µM) | 64 (≈ 186 µM) | – | – | – | 61 | –
9 | – | O=C1O/C(=C\c2cccc3ccccc23)C(O)=C1c1cccc(C(F)(F)F)c1 [Example 5] | – | – | – | – | 8 (≈ 20.9 µM) | 16 (≈ 41.8 µM) | 0.5 (≈ 1.31 µM) | – | 8 (≈ 20.9 µM) | 8 (≈ 20.9 µM) | – | – | 6 (E) μg/mL | 15.7 | 8
